Data reported in publication PMC4335020, “Single Oral Dose Pharmacokinetics of Decursin and Decursinol Angelate in Healthy Adult Men and Women” (PLoS ONE, 2015).

Assay: Urinary excretion after single oral dose of Cogni.Q
Format: in vivo, human
Conditions: pooled 0-24 h urine; for number of subjects with analyte detected in urine: of 20 subjects
Procedure: Plasma was prepared by centrifuging the heparinized blood at 1000 g for 15 minutes at room temperature. Urine samples (40mL) were collected within time spans of 0–4, 4–8, 8–12 and 12–24 hours (total volume of urine was recorded). All plasma and urine samples were put on dry ice immediately and then stored at -80°C freezer until analysis.
Urine samples from each subject collected from 0 to 24 hours post-dose were pooled proportional to the volume of urine in each sampling period. Urine sample (200μL) was spiked with 5 μL of prednisolone solution (10 ng/μL, IS), and extracted with 1500 μL of ethyl acetate. The ethyl acetate fraction was recovered and dried using a SpeedVac. The dried residue was reconstituted in 50 μL of methanol for UHPLC-MS/MS analysis and 5 μL of the sample was injected.
Urine samples from each subject were pooled proportional to the amount of urine in each sampling period (hours 0–4, 4–8, 8–12 and 12–24). DA was detected in its original form in the urine of 14 subjects whereas D was only detected in the urine of 3 subjects. The levels of detectable D and DA ranged from 0.06∼1.74 nmol/L. DOH was detected in the urine of all subjects with a mean concentration of 289 nmol/L. These extractable unmodified pyranocoumarin forms accounted for the 24-hour cumulative excretion of less than 1% of the ingested pyranocoumarins. Further work is needed to estimate the extent of additional metabolites (free and conjugated forms) in urine and plasma.

SMILES | number of subjects with analyte detected in urine | urine mean concentration (all subjects)
CC1(C)Oc2cc3oc(=O)ccc3cc2C[C@@H]1O [DOH, decursinol] | all subjects | 289 nmol/L
CC(C)=CC(=O)O[C@H]1Cc2cc3ccc(=O)oc3cc2OC1(C)C [D, decursin] | 3 subjects | –
C/C=C(/C)C(=O)O[C@H]1Cc2cc3ccc(=O)oc3cc2OC1(C)C [DA, decursinol angelate] | 14 subjects | –
